The text below walks through data of ChEMBL document CHEMBL5226343, “Structure-Activity Relationship of USP5 Inhibitors” (J Med Chem, 2021).

Data set [1] is described as follows: Metabolic stability of the compound in human liver microsomes assessed as parent compound remaining at 1 uM measured for 60 mins in presence of NADPH regenerating system by LC/MS analysis. The data set is classed as ADME, Microsome. To be noted: read-out: Stability. A general note: Liver microsomes are vesicles of endoplasmic reticulum, rich in cytochrome P450 enzymes.

Data set [2] in a line: Metabolic stability of the compound in CD-1 mouse liver microsomes assessed as parent compound remaining at 1 uM measured after 60 mins in presence of NADPH regenerating system by LC/MS analysis. The class given is ADME, Microsome. The note with it: read-out: Stability.

As to `O=C(O)CNC(=O)c1ccc(S(=O)(=O)N2CCC(c3ccc(Cl)cc3)CC2)cn1`, the remaining at 1 h, 1 µM in data set [1] and in data set [2] was more than 90% in each case.
